Test results from article PMC4948680 (European journal of pharmaceutical sciences : official …, 2016).

Key:
[1] = test system: Crl:NMRI (SPF) female mice; test: Acute intravenous toxicity of CP04 in mice; assay type: in vivo; details: 178.5 μg/kg body weight iv
Description: For acute intravenous toxicity studies Crl:NMRI (SPF) female mice provided by Charles River Laboratories (Germany) of 7–9 weeks of age and a body weight of 26–33 g were used. For extended acute single dose toxicity study in rats, 45 female and 45 male Wistar Hannover RccHan™ rats were used purchased from Harlan Laboratories, B.V. (The Netherlands). Animals were […] of age and the body weights were 195–235 g for males and 164–199 g for females. For in vivo stability tests and biodistribution/dosimetry studies healthy male Swiss albino mice from NCSR “Demokritos” Animal House were used, of 8–10 weeks of age and a body weight of 20–25 g. […]
The CP04 precursor was dissolved in phosphate buffered saline (PBS pH 7.4) and was administered at a dose of 178.5 μg/kg body weight and a dose volume of 5 mL/kg body weight into the caudal vein of two groups of three mice (Acute Intravenous Toxicity Study in Mice, Harlan Laboratories Study #D04314). […] Mortality, viability and clinical signs were recorded. […] Mortality/viability was recorded within the first 30 min and approximately 1, 2, 3 and 5 h after administration on test day 1 (with the clinical signs) and twice daily during days 2–15. Body weights were recorded on test day 1 (prior to administration) and on test days 8 and 15. […]

[2] = test system: Wistar Hannover RccHan rats; test: Extended acute single dose intravenous (bolus) toxicity study in rats; assay type: in vivo
Description: For acute intravenous toxicity studies Crl:NMRI (SPF) female mice provided by Charles River Laboratories (Germany) of 7–9 weeks of age and a body weight of 26–33 g were used. For extended acute single dose toxicity study in rats, 45 female and 45 male Wistar Hannover RccHan™ rats were used purchased from Harlan Laboratories, B.V. (The Netherlands). Animals were […] of age and the body weights were 195–235 g for males and 164–199 g for females. For in vivo stability tests and biodistribution/dosimetry studies healthy male Swiss albino mice from NCSR “Demokritos” Animal House were used, of 8–10 weeks of age and a body weight of 20–25 g. For the CCK2R-expressing tumour model, male SCID mice from NCSR “Demokritos” Animal House were used, of 6 weeks of age on arrival day and a body weight of 20 ± 2 g.
The study was designed according to the microdosing concept as described in ICH guideline M3 (R2) (“Note for guidance on non-clinical safety studies for the conduct of human clinical trials and marketing authorization for pharmaceuticals” (CPMP/ICH/286/95)). In brief, 90 rats were distributed into three dose groups, each containing fifteen animals per sex (Table 1). The animals from Group 1 received only PBS, serving as controls, while groups II and III received the CP04 solution by single intravenous (bolus) injection at a low (89 μg/kg body weight: Group 2) and a high dose (890 μg/kg body weight: Group 3). A 24-h observation period followed (Allocation A), except for five animals per sex from each group for which treatment was followed by an additional 14-day treatment-free recovery period (Allocation B).
At day 2 blood samples were withdrawn from Allocation-A animals for haematology, clinical biochemistry and samples for urinary analyses were collected. These animals were necropsied on the same day and histological examinations were performed on an extended set of organs (adrenal glands, kidneys, liver, pancreas, sternum (including bone marrow), small intestine, stomach, thyroid/parathyroid glands and gross lesions). The animals from Allocation-B remained untreated for the following 14 days, but on day 15 underwent the same procedure described above (Extended Acute Intravenous (Bolus) Toxicity Study in Rats, Harlan Study #S47364).

[3] = test system: CCK2R; design: method as in Aloj et al., 2011; Kolenc Peitl et al., 2015; details: ref Aloj et al., 2011; Kolenc Peitl et al., 2015; cited from earlier work
[4] = design: species or system mice
Procedure: Clearance kinetics in each organ was determined by exponential curve fitting. The time-integrated activity concentration (TIAC) was obtained by integration of this exponential curve folded with the decay curve of ^111In and ^177Lu.Mouse dosimetry was calculated for both ^177Lu and ^111In using the TIAC and the 25 g RADAR mouse absorbed dose rates per unit activity S for each source and target organ combination ([Keenan et al., 2010]; [Konijnenberg et al., 2014]).

| SMILES | macroscopic findings at necropsy ([1]; female mice) | survival and systemic signs of toxicity ([1]; two groups of three female mice, 14 days observation) | maximum recommended starting dose (MRSD) for a first-in-human clinical trial ([2]; HED with safety factor of 10) [µg/kg] | human equivalent dose (HED) ([2]; NOAEL × rat km/human km = 89 μg/kg × 6/37) [µg/kg] | reticulocyte count ([2]; male rats, 14 days after single bolus 890 μg/kg body weight) | mean food consumption and body weight gain ([2]; rats, single bolus 890 μg/kg body weight) | NOAEL initially established, based on pathological examination ([2]; rats, single intravenous bolus) [μg/kg body weight] | no-observed-adverse-effect-level (NOAEL) ([2]; rats, single intravenous bolus, eventually set value) [μg/kg body weight] | survival and clinical signs ([2]; rats, single iv bolus 89 or 890 μg/kg, 24-h study period) | CCK2R-affinity, IC50 [3] | Absorbed dose per injected activity, Bone [4] [mGy/MBq] | Absorbed dose per injected activity, Kidneys [4] [mGy/MBq] | Absorbed dose per injected activity, Large intestine [4] [mGy/MBq] | Absorbed dose per injected activity, Liver [4] [mGy/MBq] | Absorbed dose per injected activity, Lungs [4] [mGy/MBq] | Absorbed dose per injected activity, Pancreas [4] [mGy/MBq] | Absorbed dose per injected activity, Small intestine [4] [mGy/MBq] | Absorbed dose per injected activity, Spleen [4] [mGy/MBq] | Absorbed dose per injected activity, Stomach wall [4] [mGy/MBq] | Absorbed dose per injected activity, Total body [4] [mGy/MBq] |
| --- | --- | --- | --- | --- | --- | --- | --- | --- | --- | --- | --- | --- | --- | --- | --- | --- | --- | --- | --- | --- |
| CSCC[C@H](NC(=O)[C@H](Cc1c[nH]c2ccccc12)NC(=O)CNC(=O)[C@H](Cc1ccc(O)cc1)NC(=O)[C@H](C)NC(=O)[C@@H](CCC(=O)O)NC(=O)[C@@H](CCC(=O)O)NC(=O)[C@@H](CCC(=O)O)NC(=O)[C@@H](CCC(=O)O)NC(=O)[C@@H](CCC(=O)O)NC(=O)[C@@H](CCC(=O)O)NC(=O)CN1CCN(CC(=O)O)CCN(CC(=O)O)CCN(CC(=O)O)CC1)C(=O)N[C@@H](CC(=O)O)C(=O)N[C@@H](Cc1ccccc1)C(N)=O [CP04, DOTA-(DGlu)6-Ala-Tyr-Gly-Trp-Met-Asp-Phe-NH2] | No macroscopic findings | All animals survived until the end of the study with no systemic signs of toxicity evident | 1.4 | 14.4 | marked decrease | moderate decrease | 890 | 89 | All animals survived the 24-h study period with no clinical signs being recorded | lower nM range | – | – | – | – | – | – | – | – | – | – |
| CSCC[C@H](NC(=O)[C@H](Cc1c[nH]c2ccccc12)NC(=O)CNC(=O)[C@H](Cc1ccc(O)cc1)NC(=O)[C@H](C)NC(=O)[C@@H](CCC(=O)O)NC(=O)[C@@H](CCC(=O)O)NC(=O)[C@@H](CCC(=O)O)NC(=O)[C@@H](CCC(=O)O)NC(=O)[C@@H](CCC(=O)O)NC(=O)[C@@H](CCC(=O)O)NC(=O)CN1CCN(CC(=O)O)CCN(CC(=O)O)CCN(CC(=O)O)CC1)C(=O)N[C@@H](CC(=O)O)C(=O)N[C@@H](Cc1ccccc1)C(N)=O [^177Lu-CP04, metal not drawn] | – | – | – | – | – | – | – | – | – | – | 51 | 400 | 36 | 7 | 12 | 16 | 36 | 9 | 86 | 19 |
